Laboratory results: patent US7767659B2, “Synthesis of naturally occurring ecteinascidins and related compounds” (Pharma Mar, S.A., priority 2002, dated 2010)

How the values were obtained:
HeLa = assay: Inhibition of cells growth by colorimetric assay (SRB); details: Homo sapiens, HeLa, 48 h; for GI50: read-out: HELA GI50; for IC (TGI): read-out: HELA TGI
Description: (§1) This form of the assay employs 96 well cell culture microplates of 9 mm diameter (Faircloth, 1988; Mosmann, 1983). Most of the cell lines are obtained from American Type Culture Collection (ATCC) derived from different human cancer types.
(§2) Cells are maintained in RPMI 1640 10% FBS, supplemented with 0.1 g/l penicillin and 0.1 g/l streptomycin sulfate and then incubated at 37° C., 5% CO2 and 98% humidity. For the experiments, cells were harvested from subconfluent cultures using trypsin and resuspended in fresh medium before plating.
(§3) Cells are seeded in 96 well microtiter plates, at 5×10^3 cells per well in aliquots of 195 μl medium, and they are allowed to attach to the plate surface by growing in drug free medium for 18 hours. Afterward, samples are added in aliquots of 5 μl in a ranging from 10 to 10^−8 μg/ml, dissolved in DMSO/EtOH/PBS (0.5:0.5:99). After 48 hours exposure, the antitumor effect are measured by the SRB methodology: cells are fixed by adding 50 μl of cold 50% (wt/vol) trichloroacetic acid (TCA) and incubating for 60 minutes at 4° C. Plates are washed with deionized water and dried. One hundred μl of SRB solution (0.4% wt/vol in 1% acetic acid) is added to each microtiter well and incubated for 10 minutes at room temperature. Unbound SRB is removed by washing with 1% acetic acid. Plates are air dried and bound stain is solubilzed with Tris buffer. Optical densities are read on a automated spectrophotometric plate reader at a single wavelength of 490 nm.
(§4) The values for mean +/− SD of data from triplicate wells are calculated. Some parameters for cellular responses can be calculated: GI=growth inhibition, TGI=total growth inhibition (cytostatic effect) and LC=cell killing (cytotoxic effect).

K-562 = assay: as above; details: Homo sapiens, K562, 48 h; for GI50: read-out: K562 GI50; for CC50: read-out: K562 LC50; for IC (TGI): read-out: K562 TGI
Description: as §1, §2, §3, §4

SK-MEL-28 = assay: as above; details: Homo sapiens, SK-MEL-28, 48 h; for GI50: read-out: MEL-28 GI50; for CC50: read-out: MEL-28 LC50; for IC (TGI): read-out: MEL-28 TGI
Description: as §1, §2, §3, §4

SK-BR-3 = assay: as above; details: Homo sapiens, SK-BR-3, 48 h; for GI50: read-out: SK-BR3 GI50; for CC50: read-out: SK-BR3 LC50; for IC (TGI): read-out: SK-BR3 TGI
Description: as §1, §2, §3, §4

LNCaP = assay: as above; details: Homo sapiens, LNCaP, 48 h; for GI50: read-out: LNCAP GI50; for CC50: read-out: LNCAP LC50; for IC (TGI): read-out: LNCAP TGI
Description: as §1, §2, §3, §4

DU-145 = assay: as above; details: Homo sapiens, DU-145, 48 h; for GI50: read-out: DU145 GI50; for CC50: read-out: DU145 LC50; for IC (TGI): read-out: DU145 TGI
Description: as §1, §2, §3, §4

PANC-1 = assay: as above; details: Homo sapiens, PANC-1, 48 h; for GI50: read-out: PANC-1 GI50; for CC50: read-out: PANC-1 LC50; for IC (TGI): read-out: PANC-1 TGI
Description: as §1, §2, §3, §4

IGROV-1 = assay: as above; details: Homo sapiens, IGROV-1, 48 h; for GI50: read-out: IGROV GI50; for CC50: read-out: IGROV LC50; for IC (TGI): read-out: IGROV TGI
Description: as §1, §2, §3, §4

HeLa-APL = assay: as above; details: Homo sapiens, 48 h; for GI50: read-out: HELA-APL GI50; for CC50: read-out: HELA-APL LC50; for IC (TGI): read-out: HELA-APL TGI
Description: as §1, §2, §3, §4

IGROV-ET = assay: as above; details: Homo sapiens, 48 h; for GI50: read-out: IGROV-ET GI50; for CC50: read-out: IGROV-ET LC50; for IC (TGI): read-out: IGROV-ET TGI
Description: as §1, §2, §3, §4

LoVo-Dox = assay: as above; details: Homo sapiens, 48 h; for GI50: read-out: LOVO-DOX GI50; for IC (TGI): read-out: LOVO-DOX TGI
Description: as §1, §2, §3, §4

A-549 = assay: cells; details: Homo sapiens, A549, 48 h; for GI50: read-out: A549 GI50; for CC50: read-out: A549 LC50; for IC (TGI): read-out: A549 TGI
Method in brief: (§5)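 Colorimetric SRB read (490 nm) on triplicate wells after 48 h at 37 °C, 5% CO2. Dose range 10 to 10^−8 μg/ml; 5×10^3 cells/well pre-attached 18 h.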

LoVo = assay: cells; details: Homo sapiens, LoVo, 48 h; for GI50: read-out: LOVO GI50; for CC50: read-out: LOVO LC50; for IC (TGI): read-out: LOVO TGI
Method in brief: as §5

HT-29 = assay: cells; details: Homo sapiens, HT-29, 48 h; for GI50: read-out: HT29 GI50; for CC50: read-out: HT29 LC50; for IC (TGI): read-out: HT29 TGI
Method in brief: as §5

COc1cc2c(cc1O)CCN[C@]21C[S+]([O-])[C@@H]2c3c(OC(C)=O)c(C)c4c(c3[C@H](COC1=O)N1C2C2c3c(cc(C)c(OC)c3O)C[C@@H]([C@@H]1O)N2C)OCO4 (stereo partly shown) [Et-759B]
GI50 (HeLa): 21.3 nM
CC50 (HeLa; read-out: HELA LC50): 527 nM
IC (TGI) (HeLa): 64.2 nM
GI50 (K-562): 6 nM
CC50 (K-562): 12900 nM
IC (TGI) (K-562): 37.9 nM
GI50 (SK-MEL-28): 19.7 nM
CC50 (SK-MEL-28): 123 nM
IC (TGI) (SK-MEL-28): 49.1 nM
GI50 (SK-BR-3): 5.37 nM
CC50 (SK-BR-3): 88.1 nM
IC (TGI) (SK-BR-3): 11.6 nM
GI50 (LNCaP): 4.64 nM
CC50 (LNCaP): 52.2 nM
IC (TGI) (LNCaP): 16.7 nM
GI50 (DU-145): 391 nM
CC50 (DU-145): 11900 nM
IC (TGI) (DU-145): 3200 nM
GI50 (PANC-1): 35.5 nM
CC50 (PANC-1): 11000 nM
IC (TGI) (PANC-1): 122 nM
GI50 (IGROV-1): 22.9 nM
CC50 (IGROV-1): 10000 nM
IC (TGI) (IGROV-1): 65.2 nM
GI50 (HeLa-APL): 35.9 nM
CC50 (HeLa-APL): 1040 nM
IC (TGI) (HeLa-APL): 102 nM
GI50 (IGROV-ET): 58.2 nM
CC50 (IGROV-ET): 1710 nM
IC (TGI) (IGROV-ET): 273 nM
GI50 (LoVo-Dox): 192 nM
CC50 (LoVo-Dox; read-out: LOVO-DOX LC50): 12900 nM
IC (TGI) (LoVo-Dox): 625 nM
GI50 (A-549): 26.2 nM
CC50 (A-549): 702 nM
IC (TGI) (A-549): 61.3 nM
GI50 (LoVo): 327 nM
CC50 (LoVo): 118 nM
IC (TGI) (LoVo): 62.1 nM
GI50 (HT-29): 41.9 nM
CC50 (HT-29): 12900 nM
IC (TGI) (HT-29): 2290 nM

COc1cc2c(cc1O)CCN[C@]21CS[C@@H]2c3c(OC(C)=O)c(C)c4c(c3[C@H](COC1=O)N1C2C2c3c(cc(C)c(OC)c3O)C[C@@H]([C@@H]1C#N)N2C)OCO4 (stereo partly shown) [Et-770]
GI50 (HeLa): 5.09 nM
IC (TGI) (HeLa): 12.6 nM
GI50 (K-562): 1.65 nM
CC50 (K-562): 6630 nM
IC (TGI) (K-562): 8.02 nM
GI50 (SK-MEL-28): 2.63 nM
CC50 (SK-MEL-28): 10.8 nM
IC (TGI) (SK-MEL-28): 5.34 nM
GI50 (SK-BR-3): 0.986 nM
CC50 (SK-BR-3): 13000 nM
IC (TGI) (SK-BR-3): 94.8 nM
GI50 (LNCaP): 1.48 nM
CC50 (LNCaP): 6.34 nM
IC (TGI) (LNCaP): 3.06 nM
GI50 (DU-145): 4.16 nM
CC50 (DU-145): 13000 nM
IC (TGI) (DU-145): 32 nM
GI50 (PANC-1): 5.53 nM
CC50 (PANC-1): 13000 nM
IC (TGI) (PANC-1): 115 nM
GI50 (IGROV-1): 3.32 nM
CC50 (IGROV-1): 13000 nM
IC (TGI) (IGROV-1): 8.51 nM
GI50 (HeLa-APL): 2.96 nM
CC50 (HeLa-APL): 12.2 nM
IC (TGI) (HeLa-APL): 6.01 nM
GI50 (IGROV-ET): 12.1 nM
CC50 (IGROV-ET): 13000 nM
IC (TGI) (IGROV-ET): 4500 nM
GI50 (LoVo-Dox): 74.1 nM
IC (TGI) (LoVo-Dox): 13000 nM
GI50 (A-549): 3.24 nM
CC50 (A-549): 5200 nM
IC (TGI) (A-549): 6.98 nM
GI50 (LoVo): 3.09 nM
CC50 (LoVo): 11.4 nM
IC (TGI) (LoVo): 5.93 nM
GI50 (HT-29): 5.86 nM
CC50 (HT-29): 13000 nM
IC (TGI) (HT-29): 13 nM
